Measured values taken from patent US20250152688A1 (priority 2021, published 2025).
Entries after “also recorded” stand apart in the source; their conditions may differ. Like-named read-outs stand apart in the source and are kept apart here.

What was measured:
[1] = test system: peripheral blood mononuclear cells (PBMCs); type: in vivo, human; settings: for Patients with immune response against the peptide / UV1 mix: 51 evaluable patients vaccinated with UV1 (NSCLC, prostate cancer, malignant melanoma); for Number of patients that recognised this one peptide only / Responding patients / evaluable patients: patients vaccinated with UV1; for Responding patients / evaluable patients: response against the labelled peptide / mix
[2] = test system: T-cell clones derived from patients that responded to UV1 vaccination; type: cell-based, human; settings: T-cell clones from UV1 responders tested with overlapping 14-mer peptides
[3] = test system: J76 cells transfected with UT1, a TCR specific for SEQ ID NO: 1; type: cell-based, human; settings: 0.5, 1.5 and 5 μM (conjugates in second experiment 0.5, 1.5 and 3 μM); 24 hours; EBV cells as APC
[4] = test system: B6.129S2-H2-Ab1tm1GruTg(HLADRA/H2-Ea,HLA-DRB1*0401/H2-Eb)1Kito strain mice; type: in vivo; settings: HLA-DR4 mice
C57BL/6 mice = type: in vivo; settings: 1 nmol SC 3 times, 1 week intervals, blood 9 days post last administration
[5] = test system: peripheral blood mononuclear cells (PMBCs); type: cell-based, human; settings: for Total of positive patients over peptides sharing at least 8 amino acids with the polypeptide: GV1001 (n=4) + DC (n=3) vaccinated patients
[6] = test system: HLA-A2/DR1 transgenic mice; type: in vivo; settings: for Immunogenicity in HLA-A2/DR1 transgenic mice (conclusion): 16.4 nmol peptide with standard adjuvant; for Peptides above the threshold (T cell responses against individual peptides): 16.4 nmol peptide, female HLA-A2/DR1 mice (n=4), cut off = cells alone; for Peptide recognition by individual vaccinated mice (ELISpot): 16.4 nmol, mice M9-M12 GV1001 group, M13-M16 UV34 group
vaccinated individuals = settings: reported in Bernhardt 2006, Inderberg-Suso 2012, Kyte 2011; cited from earlier work
[7] = test system: transgenic HLA-A2/HLA-DR1 animals; type: in vivo, mice; settings: Group 1: MTTE-OVA then CD29 60 μg (4.1 nmol); Group 2: UV34 14 μg (4.1 nmol) in IFA; prime-boost-boost; p=0.0286
[8] = Vaccination GV1001 + DC (n = 4 + 3)

Substance: AERLTSRVKALFSVL [p728]
- Patients with immune response against the peptide / UV1 mix [1]: 24%
- Number of patients that recognised this one peptide only [1]: one
- Responding patients / evaluable patients [1]: (12/51)

Substance: ALFSVLNYERARRP (listed as Homo sapiens) [SEQ ID NO: 12]
- HLA Class II allele, T-cell clone recognising the peptide [2]: DR12, clone 44, 38, 6

Substance: ALFSVLNYERARRPGLLGASVLGLDDIHRA [p719-20]
- GFP-expressing T-cells specific for SEQ ID NO: 1 (T-cell activation) [3]: activate the T cells equally well
- Patients with immune response against the peptide / UV1 mix [1]: 65%
- Patients with immune response against the peptide / UV1 mix ([1]; listed as SEQ ID NO. 1): 65%
- Percentage of patients carrying the allele who responded to SEQ ID NO. 1 ([1]; HLA-DPB1*01:01): 14%
- Percentage of patients carrying the allele who responded to SEQ ID NO. 1 ([1]; HLA-DPB1*04:01): 64%
- Percentage of patients carrying the allele who responded to SEQ ID NO. 1 ([1]; HLA-DPB1*04:02): 71%
- Percentage of patients carrying the allele who responded to SEQ ID NO. 1 ([1]; HLA-DQB1*03:02): 46%
- Percentage of patients carrying the allele who responded to SEQ ID NO. 1 ([1]; HLA-DQB1*05:01): 67%
- Percentage of patients carrying the allele who responded to SEQ ID NO. 1 ([1]; HLA-DQB1*06:02): 72%
- Percentage of patients carrying the allele who responded to SEQ ID NO. 1 ([1]; HLA-DRB1*04:01): 50%
- Percentage of patients carrying the allele who responded to SEQ ID NO. 1 ([1]; HLA-DRB1*07:01): 90%
- Percentage of patients carrying the allele who responded to SEQ ID NO. 1 ([1]; HLA-DRB1*15:01): 89%
- Responders in 7 of the 9 most common HLA class II haplotypes ([1]; UV1-vaccinated patients): > 50%
- Number of patients that recognised this one peptide only [1]: 13
- Responding patients / evaluable patients [1]: (33/51)
- HLA Class II allele, T-cell clone recognising the peptide [2]: All clones
- Responding mice ([4]; 22 nmol dose): all mice appear to respond
- IFN-γ ELISpot spots on restimulation with SEQ ID NO: 1 ([4]; 30 μg (9 nmol) with CpG 1826 25 μg in IFA, prime boost, n=8): significant increase in the number of spots compared to cells alone

Substance: ARRPGLLGASVLGL (listed as Homo sapiens) [SEQ ID NO: 22]
- HLA Class II allele, T-cell clone recognising the peptide [2]: DQ7, clone 8,10

Substance: ARWWWMHHNMDLIGGAKxVAAWTLKAu [HY-PADRE]
- Anti-MTTE IgG1 antibody titres (ELISA) (C57BL/6 mice): no antibodies to the MTTE sequence

Substance: EAEVRQHREARPALL [Conjugate 713]
- No. of positive patients [5]: 4
- T-cell responses to the individual peptide (patients), counted for SEQ ID NO: 116 ([5]; Vaccination DC (n = 3)): 1
- T-cell responses to the individual peptide (patients), counted for SEQ ID NO: 116 ([5]; Vaccination GV1001 (n = 4)): 3
- T-cell responses to the individual peptide (patients), counted for SEQ ID NO: 116 [5, 8]: 4

Substance: EARPALLTSRLRFIPK [GV1001, reference compound]
- Immunogenicity in HLA-A2/DR1 transgenic mice (conclusion) [6]: marginal immune responses
- Peptides above the threshold (T cell responses against individual peptides) [6]: UV 57
- Peptide recognition by individual vaccinated mice (ELISpot) [6]: M9 and 12 did not respond to any of the tested peptides; also recorded: M11 demonstrated a marginal immune response against UV57
- SUM of T-cell responses to peptides embedded in the polypeptide ([5]; Vaccination DC (n = 3)): 5
- SUM of T-cell responses to peptides embedded in the polypeptide ([5]; Vaccination GV1001 (n = 4)): 7
- SUM of T-cell responses to peptides embedded in the polypeptide [5, 8]: 12
- Vaccinated individuals with induced immune responses (vaccinated individuals): at least 50%

Substance: ELYFVKVDVEGAYDT [Conjugate 726]
- No. of positive patients [5]: 2
- T-cell responses to the individual peptide (patients), counted for SEQ ID NO: 118 ([5]; Vaccination DC (n = 3)): 1
- T-cell responses to the individual peptide (patients), counted for SEQ ID NO: 118 ([5]; Vaccination GV1001 (n = 4)): 1
- T-cell responses to the individual peptide (patients), counted for SEQ ID NO: 118 [5, 8]: 2

Substance: ERARRPGLLGASVL (listed as Homo sapiens) [SEQ ID NO: 20]
- HLA Class II allele, T-cell clone recognising the peptide [2]: DQ7, clone 8,10

Substance: FIPKPDGLRPIVNMD [Conjugate 715]
- No. of positive patients [5]: 3
- T-cell responses to the individual peptide (patients), counted for SEQ ID NO: 116 ([5]; Vaccination DC (n = 3)): 2
- T-cell responses to the individual peptide (patients), counted for SEQ ID NO: 116 ([5]; Vaccination GV1001 (n = 4)): 1
- T-cell responses to the individual peptide (patients), counted for SEQ ID NO: 116 [5, 8]: 3

Substance: FSVLNYERARRPGL (listed as Homo sapiens) [SEQ ID NO: 14]
- HLA Class II allele, T-cell clone recognising the peptide [2]: p5-clone 109

Substance: GLLGASVLGLDDIH (listed as Homo sapiens) [SEQ ID NO: 26]
- HLA Class II allele, T-cell clone recognising the peptide [2]: DQ2, clone 52

Substance: LESVLNYERARRPG (LFSVLNYERARRPG; listed as Homo sapiens) [SEQ ID NO: 13]
- HLA Class II allele, T-cell clone recognising the peptide [2]: p5-clone109

Substance: LKRVQLRELSEAEVRQ [Conjugate 731]
- No. of positive patients [5]: 1
- T-cell responses to the individual peptide (patients), counted for SEQ ID NO: 116 ([5]; Vaccination GV1001 (n = 4)): 1
- T-cell responses to the individual peptide (patients), counted for SEQ ID NO: 116 [5, 8]: 1

Substance: LLGASVLGLDDIHR (listed as Homo sapiens) [SEQ ID NO: 27]
- HLA Class II allele, T-cell clone recognising the peptide [2]: DQ2, clone 52

Substance: LNYERARRPGLLGD (LNYERARRPGLLGA; listed as Homo sapiens) [SEQ ID NO: 17]
- HLA Class II allele, T-cell clone recognising the peptide [2]: p5-clone109

Substance: LSEAEVRQHREARPALLTSRLRFIPKPDGL [SEQ ID NO: 116]
- Immunogenicity in HLA-A2/DR1 transgenic mice (conclusion) [6]: highly immunogenic
- Peptides above the threshold (T cell responses against individual peptides) [6]: UV36, UV57, UV58, UV59, UV60, UV64 and UV66
- Peptide recognition by individual vaccinated mice (ELISpot) [6]: Mouse M16 displayed marginal immune responses against UV57; also recorded: Mouse M15 responded somewhat more broadly and recognized UV58; also recorded: Cells from this mouse also responded to UV59; also recorded: Peptide UV60 was also recognized; also recorded: They both recognized UV36, UV57, UV58, UV64 and UV66; also recorded: also recognized UV59 and UV60
- Total of positive patients over peptides sharing at least 8 amino acids with the polypeptide [5]: Total = 20
- SUM of T-cell responses to peptides embedded in the polypeptide ([5]; Vaccination DC (n = 3)): 8
- SUM of T-cell responses to peptides embedded in the polypeptide ([5]; Vaccination GV1001 (n = 4)): 12
- SUM of T-cell responses to peptides embedded in the polypeptide [5, 8]: 20
- Anti-MTTE antibody titers at the end of the experiment [7]: not able to mount an antibody response to the MTTE sequence

Substance: LYFVKVDVTGAYDTI [Conjugate 727]
- No. of positive patients [5]: 5
- T-cell responses to the individual peptide (patients), counted for SEQ ID NO: 118 ([5]; Vaccination DC (n = 3)): 2
- T-cell responses to the individual peptide (patients), counted for SEQ ID NO: 118 ([5]; Vaccination GV1001 (n = 4)): 3
- T-cell responses to the individual peptide (patients), counted for SEQ ID NO: 118 [5, 8]: 5

Substance: LYFVKVDVTGAYDTIPQDRLTRVIASIIKP (listed as Homo sapiens) [SEQ ID NO: 118]
- Total of positive patients over peptides sharing at least 8 amino acids with the polypeptide [5]: Total = 9
- SUM of T-cell responses to peptides embedded in the polypeptide ([5]; Vaccination DC (n = 3)): 4
- SUM of T-cell responses to peptides embedded in the polypeptide ([5]; Vaccination GV1001 (n = 4)): 5
- SUM of T-cell responses to peptides embedded in the polypeptide [5, 8]: 9

Substance: NYERARRPGLLGAS (listed as Homo sapiens) [SEQ ID NO: 18]
- HLA Class II allele, T-cell clone recognising the peptide [2]: p5-clone 109; also recorded: DQ7, clone 8

Substance: PGLLGASVLGLDDI (listed as Homo sapiens) [SEQ ID NO: 25]
- HLA Class II allele, T-cell clone recognising the peptide [2]: DQ2, clone 52

Substance: PQDRLTEVIASIIKP [Conjugate 723]
- No. of positive patients [5]: 1
- T-cell responses to the individual peptide (patients), counted for SEQ ID NO: 118 ([5]; Vaccination DC (n = 3)): 1
- T-cell responses to the individual peptide (patients), counted for SEQ ID NO: 118 [5, 8]: 1

Substance: RARRPGLLGASVLG (listed as Homo sapiens) [SEQ ID NO: 21]
- HLA Class II allele, T-cell clone recognising the peptide [2]: DQ7, clone 8,10

Substance: RPALLTSRLRFIPKP [Conjugate 714]
- No. of positive patients [5]: 7
- T-cell responses to the individual peptide (patients), counted for GV1001 ([5]; Vaccination DC (n = 3)): 3
- T-cell responses to the individual peptide (patients), counted for SEQ ID NO: 116 ([5]; Vaccination DC (n = 3)): 3
- T-cell responses to the individual peptide (patients), counted for GV1001 ([5]; Vaccination GV1001 (n = 4)): 4
- T-cell responses to the individual peptide (patients), counted for SEQ ID NO: 116 ([5]; Vaccination GV1001 (n = 4)): 4
- T-cell responses to the individual peptide (patients), counted for GV1001 [5, 8]: 7
- T-cell responses to the individual peptide (patients), counted for SEQ ID NO: 116 [5, 8]: 7

Substance: RRPGLLGASVLGLD (listed as Homo sapiens) [SEQ ID NO: 23]
- HLA Class II allele, T-cell clone recognising the peptide [2]: DQ7, clone 8,10

Substance: RTFVLRVRAQDPPPE [p725]
- Patients with immune response against the peptide / UV1 mix [1]: 39%
- Number of patients that recognised this one peptide only [1]: one
- Responding patients / evaluable patients [1]: (20/51)

Substance: SVLNYERARRPGLL (listed as Homo sapiens) [SEQ ID NO: 15]
- HLA Class II allele, T-cell clone recognising the peptide [2]: DR7, clone 4, 12, 21, 15, 92,; also recorded: p5-clone109

Substance: TSRLRFIPKPDGLRP [Conjugate 730]
- No. of positive patients [5]: 5
- T-cell responses to the individual peptide (patients), counted for GV1001 ([5]; Vaccination DC (n = 3)): 2
- T-cell responses to the individual peptide (patients), counted for SEQ ID NO: 116 ([5]; Vaccination DC (n = 3)): 2
- T-cell responses to the individual peptide (patients), counted for GV1001 ([5]; Vaccination GV1001 (n = 4)): 3
- T-cell responses to the individual peptide (patients), counted for SEQ ID NO: 116 ([5]; Vaccination GV1001 (n = 4)): 3
- T-cell responses to the individual peptide (patients), counted for GV1001 [5, 8]: 5
- T-cell responses to the individual peptide (patients), counted for SEQ ID NO: 116 [5, 8]: 5

Substance: VLNYERARRPGLIG (VLNYERARRPGLLG; listed as Homo sapiens) [SEQ ID NO: 16]
- HLA Class II allele, T-cell clone recognising the peptide [2]: DR7, clone 15, p5-clone109

Substance: VTGAYDTIPQDRLTE [Conjugate 732]
- No. of positive patients [5]: 1
- T-cell responses to the individual peptide (patients), counted for SEQ ID NO: 118 ([5]; Vaccination GV1001 (n = 4)): 1
- T-cell responses to the individual peptide (patients), counted for SEQ ID NO: 118 [5, 8]: 1

Substance: YERARRPGLLGASV (listed as Homo sapiens) [SEQ ID NO: 19]
- HLA Class II allele, T-cell clone recognising the peptide [2]: DQ7, clone 8
